Test results from US9999222B2, “Herbicidal combination comprising azines” (BASF SE, priority 2014, dated 2018).
Like-named read-outs stand apart in the source and are kept apart here.

How the values were obtained:
Experiment in all cases: Greenhouse test, pre-emergence treatment
ABUTH = type: in vivo, Abutilon theophrasti; conditions: Abutilon theophrasti, 480 h
Method in brief: (§1)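 Seeds were sown in loamy sand with about 3.0% humus, and compounds in water were sprayed immediately after sowing, alone or as combinations formulated as 10% emulsion concentrates. Plants grew under hoods until rooted, at 10-25 °C or 20-35 °C by species, for 2 to 4 weeks. Damage was scored 0-100 (100 = no emergence or complete destruction), and Colby expected values were E=X+Y−(X·Y/100).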

ALOMY = type: in vivo, Alopecurus myosuroides; conditions: Alopecurus myosuroides, pre-emergence, 480 h, pre-emergence, read-out: observed % activity 20 DAT; for inhibition at 50 g/ha: use rate 50 g ai/ha; for inhibition at 100 g/ha: use rate 100 g ai/ha
Description: (§2) The culture containers used were plastic flowerpots containing loamy sand with approximately 3.0% of humus as the substrate. The seeds of the test plants were sown separately for each species.
(§3) For the pre-emergence treatment, the active ingredients, which had been suspended or emulsified in water, were applied directly after sowing by means of finely distributing nozzles. The containers were irrigated gently to promote germination and growth and subsequently covered with transparent plastic hoods until the plants had rooted. This cover caused uniform germination of the test plants, unless this had been impaired by the active ingredients.
(§4) Depending on the species, the plants were kept at 10-25° C. or 20-35° C., respectively.
(§5) The test period extended over 2 to 4 weeks. During this time, the plants were tended, and their response to the individual treatments was evaluated.
(§6) Evaluation was carried out using a scale from 0 to 100. 100 means no emergence of the plants, or complete destruction of at least the aerial moieties, and 0 means no damage, or normal course of growth. A moderate herbicidal activity is given at values of at least 60, a good herbicidal activity is given at values of at least 70, and a very good herbicidal activity is given at values of at least 85.
(§7) The respective stated components a and b, and if appropriate, c were formulated as a 10% by weight strength emulsion concentrate and, with addition of the amount of solvent system, introduced into the spray liquor used for applying the active compound.
(§8) In the examples, the solvent used was water.
(§9) In the examples below, using the method of S. R. Colby (1967) “Calculating synergistic and antagonistic responses of herbicide combinations”, Weeds 15, p. 22ff., the value E, which is expected if the activity of the individual active compounds is only additive, was calculated. E=X+Y−(X·Y/100) where • X=percent activity using active compound a at an application rate A; • Y=percent activity using active compound b at an application rate B; • E=expected activity (in %) by a+b at application rates A+B.
(§10) If the value found experimentally is higher than the value E calculated according to Colby, a synergistic effect is present.

APESV = type: in vivo, Apera spica-venti; conditions: Apera spica-venti, 480 h, read-out: observed % activity 20 DAT
Description: as §2, §3, §4, §5, §6, §7, §8, §9, §10

ECHCG = type: in vivo, Echinocloa crus-galli; conditions: Echinochloa crus-galli, 480 h, ECHCG, use rate 50 g ai/ha, 20 DAT, read-out: observed % activity 20 DAT
Description: as §2, §3, §4, §5, §6, §7, §8, §9, §10

POLCO = type: in vivo, Polygonum convolvulus; conditions: Fallopia convolvulus, pre-emergence, 480 h; for inhibition at 50 g/ha: use rate 50 g ai/ha
Method in brief: as §1

ANTAR = type: in vivo; conditions: Anthemis arvensis, 480 h, 20 DAT, read-out: observed % activity
Method in brief: as §1

COMBE = type: in vivo, Commelina benghalensis; conditions: Commelina benghalensis, pre-emergence, 480 h
Method in brief: as §1

EPHHL = type: in vivo, Euphorbia heterophylla; conditions: Euphorbia heterophylla, pre-emergence, 480 h, read-out: observed % activity 20 DAT
Method in brief: as §1

GERPU = type: in vivo, Geranium pusillum; conditions: Geranium pusillum, pre-emergence, 480 h
Method in brief: as §1

KCHSC = type: in vivo, Kochia scoparia; conditions: Bassia scoparia, pre-emergence, 480 h, pre-emergence, read-out: observed % activity 20 DAT
Method in brief: as §1

LOLMU = type: in vivo, Lolium multiflorum; conditions: Lolium multiflorum, pre-emergence, 480 h, pre-emergence, read-out: observed % activity 20 DAT
Description: as §2, §3, §4, §5, §6, §7, §8, §9, §10

IPOHE = type: in vivo, Ipomoea hederacea; conditions: Ipomoea hederacea, 480 h, IPOHE, individual, read-out: observed % activity 20 DAT
Method in brief: as §1

SIDRH = type: in vivo, Sida rhombifolia; conditions: Sida rhombifolia, pre-emergence, 480 h
Method in brief: as §1

CENCY = type: in vivo; conditions: 480 h, individual, read-out: observed % activity 20 DAT
[1] = 20 g ai/ha, 20 DAT, read-out: observed % activity
[2] = 40 g ai/ha, 20 DAT, read-out: observed % activity
[3] = read-out: observed % activity 20 DAT

## COc1c(Cl)ccc(Cl)c1C(=O)O [DICAMBA, dicamba]
ABUTH; [1]
  inhibition at 20 g/ha: 60%
ABUTH; [2]
  inhibition at 40 g/ha: 80%
ABUTH; ABUTH, individual, use rate 35 g ai/ha, read-out: observed % activity 20 DAT
  inhibition at 35 g/ha: 0%
ABUTH; ABUTH, individual, use rate 70 g ai/ha, read-out: observed % activity 20 DAT
  inhibition at 70 g/ha: 20%
ALOMY; ALOMY, 20 DAT
  inhibition at 50 g/ha: 20%
  inhibition at 100 g/ha: 40%
ALOMY
  inhibition at 50 g/ha: 20%
  inhibition at 100 g/ha: 40%
APESV
  inhibition at 100 g/ha: 35%
ECHCG
  inhibition at 50 g/ha: 0%
POLCO; [1]
  inhibition at 20 g/ha: 35%
POLCO; [2]
  inhibition at 40 g/ha: 90%
POLCO; POLCO, 20 DAT, read-out: observed % activity 20 DAT
  inhibition at 50 g/ha: 40%
POLCO; [3]
  inhibition at 50 g/ha: 40%
POLCO; use rate 100 g ai/ha, read-out: observed % activity 20 DAT
  inhibition at 100 g/ha: 60%
ANTAR; 20 g ai/ha
  inhibition at 20 g/ha: 30%
ANTAR; 40 g ai/ha
  inhibition at 40 g/ha: 30%
COMBE; [1]
  inhibition at 20 g/ha: 45%
COMBE; [2]
  inhibition at 40 g/ha: 65%
COMBE; COMBE, individual, use rate 70 g ai/ha, read-out: observed % activity 20 DAT
  inhibition at 70 g/ha: 50%
COMBE; [3]
  inhibition at 35 g/ha: 15%
EPHHL
  inhibition at 35 g/ha: 20%
GERPU; [1]
  inhibition at 20 g/ha: 20%
GERPU; [2]
  inhibition at 40 g/ha: 85%
GERPU; GERPU, individual, use rate 35 g ai/ha, read-out: observed % activity 20 DAT
  inhibition at 35 g/ha: 40%
KCHSC; use rate 100 g ai/ha
  inhibition at 100 g/ha: 90%
KCHSC
  inhibition at 35 g/ha: 75%
  inhibition at 50 g/ha: 85%
  inhibition at 70 g/ha: 75%
LOLMU; LOLMU, use rate 50 g ai/ha, 20 DAT
  inhibition at 50 g/ha: 40%
LOLMU
  inhibition at 100 g/ha: 45%
IPOHE; use rate 35 g ai/ha
  inhibition at 35 g/ha: 40%
IPOHE; use rate 70 g ai/ha
  inhibition at 70 g/ha: 40%
SIDRH; [1]
  inhibition at 20 g/ha: 45%
SIDRH; [2]
  inhibition at 40 g/ha: 80%
SIDRH; SIDRH, individual, use rate 35 g ai/ha, read-out: observed % activity 20 DAT
  inhibition at 35 g/ha: 20%
SIDRH; [3]
  inhibition at 70 g/ha: 15%
CENCY; use rate 35 g ai/ha
  inhibition at 35 g/ha: 0%
CENCY; use rate 70 g ai/ha
  inhibition at 70 g/ha: 30%
